Measured values from patent publication US20240336562A1, “COMPOUND SERVING AS NLRP3 INHIBITOR” (Hangzhou Innogate Pharma Co., Ltd., priority 2021, published 2024).

Columns and labels:
[1] = biological target: NLRP3 (Homo sapiens (Human), UniProt Q96P20); assay: Inhibitory activity of NLRP3: IL1β induction in THP1 cells (PMA, LPS, nigericin) and IL1β ELISA detection; format: cell-based; settings: THP-1, 300 nM compound, LPS 500 ng/mL + nigericin 10 μg/mL
Protocol: Study of the Compound's Inhibitory Activity of NLRP3 Step 1: IL1 β Induction 60 μL/well polylysine was added to 96-well cell culture plate and incubated at 37° C. for 30 min. Discard the solution in the plate and wash the cell culture plate twice with PBS. THP1 (50000 cells/well/95 μL) was planted in cell culture plates, 5 μL of PMA was added to each well (the final concentration was 50 ng/mL), and cultured overnight in a thermostat incubator at 37° C. The supernatant was gently sucked out, the cell culture plate was washed with PBS twice, and 80 μL cell culture medium without FBS, followed by 5 μL/well LPS (final concentration 500 ng/mL) was added to each well. The plate was cultured in a thermostat incubator at 37° C. for 3 hours. […] Then 10 μL/well nigericin (final concentration 10 μg/mL) was added to the cell plate and cultured in a thermostat incubator at 37° C. for 0.5 hours. The cell supernatant was collected into a new cell plate and frozen at -80° C. for future use. Step 2: IL1 β detection IL1β antibody was diluted 60 times with coating buffer, and 100 μL of diluted antibody was added to each well of ELISA plate, and incubated at 4° C. overnight. Discard the liquid in the ELISA plate and wash it 4 times with eluent. Add 300 μL/well reagent diluent and incubate the ELISA plate at room temperature for 1.5 hours. Wash the plate with eluent for four times. […] Wash the plate with eluent for four times. Each well was added with 100 μL detection antibody and incubated at 37° C. for 2 h. Wash the plate with eluent for four times. Add 100 μL of HRP labeled secondary antibody to each well. Incubate at 37° C. for 1 hour. Wash the plate with eluent for four times. Add 100 μL of A+B substrate per well. Incubate at 37° C. for 30 minutes. Add 100 μL STOP solution per well. Gently shake the plate for a few seconds. Read the absorption value at 450 nm on the EnVision multifunction reader and calculate the Inhibitory rate according to the following formula: Inhibition %=([…]). […] The log value of concentration was taken as the X-axis and the percentage inhibitory rate as the Y-axis. […]

[2] = Pharmacokinetic study in rats after intragastrical administration; format: in vivo; settings: rat, male SD rats, oral 3 mg/kg, plasma
Protocol: Pharmacokinetic Study in Rats
Instruments: XEVO TQ-S LC/MS instrument produced by Waters. All measurement data is collected and processed by Masslynx V4.1 software, and the data is calculated and processed by Microsoft Excel. Using WinNonLin 8.0 software, the statistical moment method was used to calculate the pharmacokinetic parameters. Mainly include kinetic parameters Tmax, T1/2, Cmax, AUClast etc. Column: ACQUITY UPLC BEH C18 (2.1 mm×50 mm, 1.7 μm); column temperature 40° C.; mobile phase A is water (0.1% formic acid), mobile phase B is acetonitrile, flow rate is 0.350 ml/min, gradient elution is adopted, the elution gradient is 0.50 min: 10% B; 1.50 min: 90% B; 2.50 min: 90% B; 2.51 min: 10% B; 3.50 min: stop. Injection volume: 1 μL.
Animals: 3 male SD rats with a weight range of 200-220 g. After purchase, they will be kept in the laboratory of the Experimental Animal Center for 2 days and then used. They will be fasted for 12 hours predose and 4 hours after dosing. Drinking water is free during the test. After the rats were gavage, blood samples were taken according to the established time point.
Solvent: 0.4% ethanol+0.4% Tween80+99.2% (0.5% methylcellulose M450). Preparation of the solution for intragastrical administration: accurately weigh the compound, add it to the solvent, and use ultrasound at room temperature for 5 minutes to completely dissolve the drug, and prepare a 0.3 mg/mL medicinal solution.
Pharmaceutical samples: Generally, multiple samples with similar structures (with a molecular weight difference of more than 2 units) are taken, accurately weighed, and administered together (cassette PK). In this way, multiple compounds can be screened at the same time and their oral absorption rates can be compared. A single administration was also used to study the pharmacokinetics of the drug sample in rats.
After intragastrical administration, blood was taken from the orbit at 0.25, 0.5, 1, 2, 4, 8, 10 and 24 hours. Then take 50 μL of the plasma sample, add 200 μL of acetonitrile (including internal standard control verapamil 2 ng/mL), vortex for 3 min and centrifuge at 20000 ref, 4° C. for 10 min. The supernatant plasma was used for LC-MS/MS analysis.
Accurately weigh the compounds to prepare different concentrations, perform quantitative analysis on mass spectrometry to establish a standard curve, and then test the concentration of the above-mentioned compound in the plasma to obtain the compound concentration at different time points. All measurement data are collected and processed by relevant software, and the statistical moment method is used to calculate the pharmacokinetic parameters (mainly including kinetic parameters Tmax, T1/2, Cmax, AUClast etc).

Sequence of NLRP3 (Q96P20 whole entry): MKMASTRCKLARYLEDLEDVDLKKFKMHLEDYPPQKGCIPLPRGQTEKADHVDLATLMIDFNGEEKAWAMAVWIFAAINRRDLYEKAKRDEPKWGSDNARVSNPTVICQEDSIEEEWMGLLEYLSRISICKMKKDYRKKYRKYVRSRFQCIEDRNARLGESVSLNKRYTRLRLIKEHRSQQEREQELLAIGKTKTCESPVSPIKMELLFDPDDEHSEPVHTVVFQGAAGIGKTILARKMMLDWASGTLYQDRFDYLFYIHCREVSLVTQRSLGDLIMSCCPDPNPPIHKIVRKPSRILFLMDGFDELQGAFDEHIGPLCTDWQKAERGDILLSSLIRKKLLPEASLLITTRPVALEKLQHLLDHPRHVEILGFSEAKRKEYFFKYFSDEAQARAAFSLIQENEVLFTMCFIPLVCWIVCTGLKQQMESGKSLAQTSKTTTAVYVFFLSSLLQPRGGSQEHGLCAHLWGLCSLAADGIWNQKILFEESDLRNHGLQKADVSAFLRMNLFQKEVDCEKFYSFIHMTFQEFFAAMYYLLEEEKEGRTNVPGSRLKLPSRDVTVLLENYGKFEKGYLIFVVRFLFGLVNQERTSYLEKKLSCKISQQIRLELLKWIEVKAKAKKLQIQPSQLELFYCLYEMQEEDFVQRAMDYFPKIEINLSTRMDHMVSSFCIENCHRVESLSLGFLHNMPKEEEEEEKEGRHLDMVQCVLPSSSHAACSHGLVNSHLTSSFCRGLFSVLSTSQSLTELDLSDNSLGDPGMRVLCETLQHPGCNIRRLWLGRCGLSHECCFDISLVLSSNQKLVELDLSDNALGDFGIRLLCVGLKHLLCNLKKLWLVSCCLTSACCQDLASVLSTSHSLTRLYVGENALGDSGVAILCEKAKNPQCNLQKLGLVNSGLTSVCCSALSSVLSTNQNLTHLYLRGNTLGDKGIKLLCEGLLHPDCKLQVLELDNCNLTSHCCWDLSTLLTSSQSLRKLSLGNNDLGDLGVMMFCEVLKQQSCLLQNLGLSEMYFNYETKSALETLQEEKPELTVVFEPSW

Cc1cc2c(c(NC(=O)NS(C)(=O)=O)c1-c1ccnc(OCC3=CCN(C)CC3)c1)CCC2 [Compound 1]
inhibition at 0.3 µM [1]: > 50%

COc1cc(-c2c(C)cc3c(c2NC(=O)NS(=O)(=O)c2ccn(C4CC(=C(F)F)C4)n2)CCC3)ccn1 (stereo not shown) [Compound 22]
Cmax [2]: 1530 ng/mL | Tmax [2]: 1 h | half-life [2]: 5.6 h | AUC(0-t) ([2]; read-out: AUC(0-24)): 6710 ng·h/mL

Cc1cc2c(c(NC(=O)NS(=O)(=O)N(C)C)c1-c1ccnc(OCC3=CCCN(C)C3)c1)CCC2 [Compound 7]
inhibition at 0.3 µM [1]: > 50%

Cc1cc2c(c(NC(=O)NS(=O)(=O)C3CC3)c1-c1ccnc(OCC3=CCCN(C)C3)c1)CCC2 [Compound 6]
inhibition at 0.3 µM [1]: > 50%
